{"source": "patent US20130011376A1", "about": "“Methods for Enhancing Natural Killer Cell Proliferation and Activity” (GAMIDA CELL LTD., priority 2009, published 2013)", "key": {"[1]": {"test_system": "unselected cord blood mononuclear cell population", "experiment": "Lymphocyte subsets (FACS) in unselected cord blood mononuclear cell cultures", "format": "cell-based, human", "conditions": "three weeks", "description": "1. Total mononuclear cell fraction was cultured in culture bags (American Fluoroseal Co. Gaithersburg, Md., USA), T-Flasks or 24 well plates at a concentration of 0.5−2×10^6 cells/ml in MEMα comprising 10% FCS or CellGro SCGM (Cell Genix) comprising 5-10% Human Serum/LiforCell® FBS Replacement (Lifeblood Products) containing the following human recombinant cytokines:, interleukin-2 (IL-2) (5-50 ng/ml), interleukin-15 (IL-15), interleukin7 (IL7), interleukin 21 (IL21), FLT-3 or SCF or FLT3 and SCF (Perpo Tech, Inc., Rocky Hill, N.J., USA), with or without OKT-3 (10-50 ng/ml), with or without nicotinamide (0.5-10 mM), and incubated at 37° C. in a humidified atmosphere of 5% CO2 in air. When OKT-3 was used in the culture the cultures were centrifuged after 5-7 days and the cells were resuspended with the same medium excluding the OKT-3. All cultures are topped weekly or twice a week with the same volume of fresh medium containing the growth factors with or without nicotinamide. For counting, the cells were stained with trypan blue. At various time points, samples were taken to assay the relative fractions of NK cells, CD56+CD3−, CD56+CD3+, CD34+CD56+, CD56+CD16+ and/or CD56+ NKG2A cells. Cell morphology was determined on cytospin (Shandon, Pittsburgh, Pa., USA) prepared smears stained with May-Grunwald/Giemsa solutions.\nThe cells were washed with a PBS solution containing 1% BSA, and stained (at 4° C. for 30 min) with fluorescein isothiocyanate (FITC)- or phycoerythrin (PE)-conjugated antibodies or allophycocyanin (APC). The cells were then washed in the above buffer and analyzed using a FACScalibur® flow cytometer (Becton Dickinson, San Jose, Calif., USA). The cells were passed at a rate of up to 1000 cells/second, using a 488 nm or 661 nm argon laser beam as the light source for excitation. Emission of 10^4 cells was measured using logarithmic amplification, and analyzed using the CellQuest software (Becton Dickinson). Cells stained with FITC, PE and APC-conjugated isotype control antibodies were used to determine background fluorescence. […]"}, "[2]": {"test_system": "monocyte (CD14+) and granulocyte (CD15+) cells", "experiment": "Contaminating monocytes and granulocytes in NK cell cultures (FACS)", "format": "cell-based, human", "conditions": "14 days culture", "description": "For depletion procedure, total nuclear cells from umbilical cord blood (CB), bone marrow (BM) or peripheral blood (PB) cells were layered on a Ficoll-Hypaque gradient (1.077 g/mL; Sigma), and centrifuged at 800×g for 30 minutes for separation of the mononuclear cells. The cells in the interface layer were collected and washed three times in phosphate-buffered saline (PBS) (Biological Industries, Israel) containing 0.5% HSA. Optionally, cells are not separated on the Ficoll-Hypaque gradient but washed three times in phosphate-buffered saline (PBS) (Biological Industries) containing 0.5% HSA (“total mononuclear fraction”). CD3 cells were depleted using the CD3 cell isolation kit (Miltenyi Biotec Bergisch, Gladbach, Germany) and the entire CD3 negative cell fraction was cultured. […] After negative depletion the cells were counted and characterized by FACS analysis.\n3. […] To estimate number of cells in culture, cell samples were counted following staining with trypan blue. […]\nMethods for expansion of NK cells in culture, for use in the clinical setting, must be somewhat specific for the NK cell population, lest contaminating non-NK cells also proliferate due to cell culture conditions. The effect of nicotinamide on non-NK cells was evaluated by monitoring monocyte and granulocyte populations in NK cell cultures exposed to 2.5, 5 and 7.5 mM nicotinamide."}, "[3]": {"conditions": "0.5, 1, 2.5 and 5 mM nicotinamide"}}, "data": [{"compound": "NC(=O)c1cccnc1", "note": "[nicotinamide]", "values": [{"measurement": "proliferation in culture of CD56+/CD3- NK cells", "setting": "[1]; [3]", "result": "dose-dependent nicotinamide-induced enhancement of proliferation"}, {"measurement": "proliferation in culture of CD56+/CD45+ cells", "setting": "[1]; [3]", "result": "dose-dependent nicotinamide-induced enhancement of proliferation"}, {"measurement": "CD3+ CD56- T cell growth", "setting": "[1]; 0.5 to 5 mM nicotinamide, dose-dependent", "result": "inhibition"}, {"measurement": "suppression of CD14 proliferation", "setting": "[2]", "result": "greater than 50%"}, {"measurement": "suppression of granulocyte proliferation", "setting": "[2]", "result": "greater than 50%"}]}]}
